The text below walks through data of patent US9593122B2, “Substituted pyrazolylpyrazole derivative and use of same as herbicide” (KYOYU AGRI CO., LTD., priority 2013, dated 2017).

Holding throughout (experiment): Paddy herbicidal activity test
Assay type in all cases: in vivo

One experiment concerns Monochoria vaginalis. To be noted: irrigated paddy pot, 30 days. The protocol:
(§1) Rice paddy soil was filled into a 1/10000 are pot followed by the addition of suitable amounts of water and chemical fertilizer, kneading, seeding with Echinochloa crus-galli, Monochoria vaginalis and Scirpus juncoides and maintaining in an irrigated state at a water depth of 3 cm.
(§2) Wettable powder of Target Compound (I) shown in Table 1 prepared in compliance with the preparation examples were diluted with a suitable amount of water, rice plants in the 2.0 leaf stage were transplanted during 3.5 leaf stage of Echinochloa crus-galli, and treated by dropping in chemical in the prescribed amount per are using a pipette.
(§3) After treating for 30 days in a glass greenhouse at an average atmospheric temperature of 30° C., the herbicidal efficacy thereof was investigated.
(§4) Evaluation of herbicidal efficacy was carried out by comparing growth inhibition rate (%) with an untreated group, while evaluation of phytotoxicity was carried out by comparing growth inhibition rate (%) with the state of a complete eradication group, and were evaluated at 11 levels indicated below.

For a further experiment, the system named is Scirpus juncoides. To be noted: irrigated paddy pot, 30 days. The protocol:
as §1, §2, §3, §4

The next experiment deals with Echinochloa crus-galli. To be noted: irrigated paddy pot, treated at 3.5 leaf stage of Echinochloa crus-galli, 30 days. The protocol: as §1, §2, §3, §4

In the case of `C=CCCN(C(=O)C(F)(F)F)c1c(C#N)cnn1-c1nn2c(c1Br)CCCC2` [Compound 50], the “Monochoria vaginalis herbicidal efficacy (growth inhibition level)” value in the experiment with Monochoria vaginalis (1g a.i./10a) is given as 7 (7: 70% to less than 80%); in the experiment on Monochoria vaginalis (5g a.i./10a), 9 (9: 90% to less than 100%). In addition, the results for the “Scirpus juncoides herbicidal efficacy (growth inhibition level)” value in the experiment with Scirpus juncoides (1g a.i./10a) and with Scirpus juncoides (5g a.i./10a) were 7 (7: 70% to less than 80%) and 8 (8: 80% to less than 90%), respectively. Also, the “Echinochloa crus-galli herbicidal efficacy (growth inhibition level)” value in the experiment with Echinochloa crus-galli (1g a.i./10a) was 9 (9: 90% to less than 100%); in the experiment with Echinochloa crus-galli (5g a.i./10a), 10 (10: 100%).

For the molecule `CC(C)=CCN(C(=O)C(F)(F)F)c1c(C#N)cnn1-c1nn2c(c1Cl)CCCC2` [Compound 25], the “Monochoria vaginalis herbicidal efficacy (growth inhibition level)” value with Monochoria vaginalis (1g a.i./10a) and in the experiment on Monochoria vaginalis (5g a.i./10a) was 9 (9: 90% to less than 100%) in each case. For the same molecule, the “Scirpus juncoides herbicidal efficacy (growth inhibition level)” value with Scirpus juncoides (1g a.i./10a) and with Scirpus juncoides (5g a.i./10a) was 8 (8: 80% to less than 90%) throughout. For the same molecule, the “Echinochloa crus-galli herbicidal efficacy (growth inhibition level)” value is recorded as 9 (9: 90% to less than 100%) with Echinochloa crus-galli (1g a.i./10a) and 10 (10: 100%) in the experiment with Echinochloa crus-galli (5g a.i./10a).

Regarding `C=CCCNc1c(C#N)cnn1-c1nn2c(c1Cl)CCCC2` [Compound 5], the “Monochoria vaginalis herbicidal efficacy (growth inhibition level)” value in the experiment on Monochoria vaginalis (1g a.i./10a) and in the experiment with Monochoria vaginalis (5g a.i./10a) was 9 (9: 90% to less than 100%) throughout. For the same molecule, the results for the “Scirpus juncoides herbicidal efficacy (growth inhibition level)” value in the experiment on Scirpus juncoides (1g a.i./10a) and in the experiment with Scirpus juncoides (5g a.i./10a) were 7 (7: 70% to less than 80%) and 8 (8: 80% to less than 90%), respectively. Besides, the results for the “Echinochloa crus-galli herbicidal efficacy (growth inhibition level)” value in the experiment on Echinochloa crus-galli (1g a.i./10a) and in the experiment with Echinochloa crus-galli (5g a.i./10a) were 9 (9: 90% to less than 100%) and 10 (10: 100%), respectively.

`CC=CCCN(C(=O)C(F)(F)F)c1c(C#N)cnn1-c1nn2c(c1Cl)CCCC2` (mixture of isomers) [Compound 26]: the “Monochoria vaginalis herbicidal efficacy (growth inhibition level)” value with Monochoria vaginalis (1g a.i./10a) is on record as 8 (8: 80% to less than 90%); in the experiment with Monochoria vaginalis (5g a.i./10a) it was 9 (9: 90% to less than 100%). Moreover, the “Scirpus juncoides herbicidal efficacy (growth inhibition level)” value with Scirpus juncoides (1g a.i./10a) was 7 (7: 70% to less than 80%); in the experiment with Scirpus juncoides (5g a.i./10a), 8 (8: 80% to less than 90%). Besides, the “Echinochloa crus-galli herbicidal efficacy (growth inhibition level)” value in the experiment with Echinochloa crus-galli (1g a.i./10a) and with Echinochloa crus-galli (5g a.i./10a) was 9 (9: 90% to less than 100%) in each case.

`CC=CCNc1c([N+](=O)[O-])cnn1-c1nn2c(c1Br)CCCC2` (mixture of isomers) [Compound 57]: the entries for the “Monochoria vaginalis herbicidal efficacy (growth inhibition level)” value with Monochoria vaginalis (1g a.i./10a) and in the experiment on Monochoria vaginalis (5g a.i./10a) were 8 (8: 80% to less than 90%) and 9 (9: 90% to less than 100%), respectively. For the same molecule, the “Scirpus juncoides herbicidal efficacy (growth inhibition level)” value with Scirpus juncoides (1g a.i./10a) is given as 7 (7: 70% to less than 80%); in the experiment with Scirpus juncoides (5g a.i./10a) it was 8 (8: 80% to less than 90%). For the same molecule, the entries for the “Echinochloa crus-galli herbicidal efficacy (growth inhibition level)” value in the experiment with Echinochloa crus-galli (1g a.i./10a) and in the experiment on Echinochloa crus-galli (5g a.i./10a) were 9 (9: 90% to less than 100%) and 10 (10: 100%), respectively.

As for `C=CCN(C(=O)C(F)(F)C(F)(F)F)c1c(C#N)cnn1-c1nn2c(c1Cl)CCCC2` [Compound 28], the “Monochoria vaginalis herbicidal efficacy (growth inhibition level)” value with Monochoria vaginalis (1g a.i./10a) is 8 (8: 80% to less than 90%); with Monochoria vaginalis (5g a.i./10a), 10 (10: 100%). Moreover, the “Scirpus juncoides herbicidal efficacy (growth inhibition level)” value in the experiment on Scirpus juncoides (1g a.i./10a) is listed as 8 (8: 80% to less than 90%); in the experiment with Scirpus juncoides (5g a.i./10a), 9 (9: 90% to less than 100%). In addition, the “Echinochloa crus-galli herbicidal efficacy (growth inhibition level)” value with Echinochloa crus-galli (1g a.i./10a) and in the experiment on Echinochloa crus-galli (5g a.i./10a) was 9 (9: 90% to less than 100%) in each case.
